Laboratory results: ChEMBL document CHEMBL1126174 (J Med Chem, 1992)

How the values were obtained:
[1] = biological target: Muscarinic acetylcholine receptor
Description: Ability to displace [3H]cis--2-methyl-5-((dimethylamino)methyl)-1,3-di oxolane from muscarinic acetylcholine receptor in rat cortical tissue.

[2] = biological target: T1, Muscarinic acetylcholine receptor M1 (Rattus norvegicus, UniProt P08482)
T1 sequence (P08482 whole entry): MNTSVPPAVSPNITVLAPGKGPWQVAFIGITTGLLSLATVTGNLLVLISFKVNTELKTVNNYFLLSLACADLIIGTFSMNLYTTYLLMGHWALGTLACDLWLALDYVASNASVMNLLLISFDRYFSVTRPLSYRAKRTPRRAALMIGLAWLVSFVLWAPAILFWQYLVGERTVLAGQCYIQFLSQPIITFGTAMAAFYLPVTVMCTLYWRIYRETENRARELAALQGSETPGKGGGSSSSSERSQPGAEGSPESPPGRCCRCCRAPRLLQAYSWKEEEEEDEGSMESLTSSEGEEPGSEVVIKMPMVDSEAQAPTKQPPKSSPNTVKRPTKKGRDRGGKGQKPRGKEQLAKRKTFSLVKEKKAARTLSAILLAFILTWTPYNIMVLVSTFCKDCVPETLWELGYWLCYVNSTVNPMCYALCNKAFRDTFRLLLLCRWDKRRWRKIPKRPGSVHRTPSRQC
Description: Ability to displace [3H]pirenzepine (pir) from muscarinic acetylcholine receptor M1 in rat cortical tissue.

[3] = biological target: T2, Muscarinic acetylcholine receptor M1 (Rattus norvegicus) (UniProt P08482); settings: Cervical ganglion
T2 sequence (whole entry): T1 sequence (P08482 whole entry)

[4] = biological target: Muscarinic acetylcholine receptor M3 (Cavia porcellus) (UniProt Q8VH26); settings: Ileum
Chain of Muscarinic acetylcholine receptor M3 (Cavia porcellus) (Q8VH26 1-587): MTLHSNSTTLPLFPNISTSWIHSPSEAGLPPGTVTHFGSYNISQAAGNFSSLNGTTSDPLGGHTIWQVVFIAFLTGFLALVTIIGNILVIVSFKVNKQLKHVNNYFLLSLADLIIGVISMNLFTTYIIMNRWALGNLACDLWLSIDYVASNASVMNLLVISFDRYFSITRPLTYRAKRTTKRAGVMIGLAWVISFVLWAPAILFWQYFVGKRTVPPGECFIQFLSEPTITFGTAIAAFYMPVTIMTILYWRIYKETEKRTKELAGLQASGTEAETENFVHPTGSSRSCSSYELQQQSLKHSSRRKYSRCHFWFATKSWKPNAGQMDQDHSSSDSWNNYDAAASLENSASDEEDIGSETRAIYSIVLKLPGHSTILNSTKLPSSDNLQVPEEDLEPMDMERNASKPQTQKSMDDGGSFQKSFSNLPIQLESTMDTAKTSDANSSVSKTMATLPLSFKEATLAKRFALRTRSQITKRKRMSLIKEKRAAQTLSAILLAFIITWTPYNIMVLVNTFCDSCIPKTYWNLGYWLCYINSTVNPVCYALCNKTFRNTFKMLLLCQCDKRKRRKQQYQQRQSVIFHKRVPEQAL
Description: Peripheral postsynaptic muscarinic activity by contraction of the guinea pig ileum.

[5] = biological target: T2, Muscarinic acetylcholine receptor M1 (Rattus norvegicus); settings: Hippocampus
[6] = biological target: Muscarinic acetylcholine receptor; remark: listed apart in the source
[7] = biological target: Muscarinic acetylcholine receptor M3 (Cavia porcellus) (UniProt Q8VH26); test: Peripheral postsynaptic muscarinic activity was measured relative to muscarine (100%); format: functional
[8] = biological target: T1, Muscarinic acetylcholine receptor M1; test: Compound was tested for its ability to displace [3H]pirenzepine (pir) from M1 Muscarinic receptor in rat cortical tissue
[9] = Ratio of binding affinities towards muscarinic receptor using Pir to that of CD as radioligand
[10] = biological target: T2, Muscarinic acetylcholine receptor M1 (Rattus norvegicus); test: Central postsynaptic muscarinic activity was measured relative to muscurine (100%); format: functional, tissue-based
[11] = biological target: Muscarinic acetylcholine receptor M3 (Cavia porcellus) (UniProt Q8VH26); test: (§1) Peripheral postsynaptic muscarinic activity was measured by contraction of the guinea pig ileum in M3 model; format: functional, tissue-based
[12] = biological target: T2, Muscarinic acetylcholine receptor M1 (Rattus norvegicus); test: Neuronal postsynaptic muscarinic activity was measured by firing rate of the rat hippocampal CA1 neurons in M1 model; format: functional, tissue-based; settings: Hippocampus
[13] = biological target: T2, Muscarinic acetylcholine receptor M1 (Rattus norvegicus); test: Central postsynaptic muscarinic activity was measured by slow depolarization of the rat cervical ganglion in M1 model; format: functional, tissue-based
Cavia porcellus = species: Cavia porcellus; test: as §1; format: functional

| IC50 [1] [nM] | IC50 [2] [nM] | pD2 [3] | pD2 [4] | pD2 [5] | Structure (SMILES) | also measured |
| --- | --- | --- | --- | --- | --- | --- |
| 54 | 435 | 6.5 | 5.3 | 5.3 | CC[C@@H]1C(=O)SC[C@@H]1Cc1cncn1C |  |
| 100 | 288 | 6.1 | 5.4 | 5.6 | CCN1C(=O)OC[C@@H]1Cc1cncn1C |  |
| 705 | 695 | 4.4 | < 4 | < 4 | CC[C@@H]1C(O)SC[C@@H]1Cc1cncn1C (stereo partly specified) |  |
| 800 | 9950 | 5.6 | 4.6 | 4.7 | CC[C@H]1C(=O)NC[C@@H]1Cc1cncn1C |  |
| 330 | 285 | 4.7 | < 4 | < 4 | CC[C@H]1C(O)SC[C@@H]1Cc1cncn1C (stereo partly specified) |  |
| 45 | 51 | 5.2 | 5.6 |  | CC[C@H]1C(=S)SC[C@@H]1Cc1cncn1C |  |
|  |  |  |  |  | CC[C@@H]1C(O)OC[C@@H]1Cc1cncn1C (stereo partly specified) | IC50 [6]: 45000 nM; Efficiency [7]: 22%; IC50 [8]: 110000 nM; Ratio [9]: 2.4; Efficiency [10]: 65%; pD2 [11]: 5.2; pD2 [12]: < 4; pD2 [13]: 5.9 |
| 10000 | 10000 | 4.4 | < 4 | 4.1 | CC[C@H]1C(=O)N(C)C[C@@H]1Cc1cncn1C |  |
| 4600 | 10200 | 100 | 4.2 |  | CC[C@@H]1C(=O)N(C)C[C@@H]1Cc1cncn1C |  |
| 6.4 | 2100 | 7.8 | 7.5 | 6.3 | CC1OCC(CN(C)C)O1 (stereo unspecified) |  |
| 320 | 775 | 4.7 | 4.8 | 5.4 | CC[C@H]1C(=O)SC[C@@H]1Cc1cncn1C |  |
|  |  | 7.2 | 6.7 | 6 | C[N+](C)(C)CCOC(N)=O |  |
| 445 | 1800 | 5.7 | 4.5 | < 4 | CC[C@@H]1COC[C@@H]1Cc1cncn1C |  |
| 845 | 5150 | 5.2 | 4.2 | 4.5 | CC[C@@H]1C(=O)NC[C@@H]1Cc1cncn1C |  |

| Structure (SMILES) | IC50 [1] [nM] | IC50 [2] [nM] | pD2 [3] | pD2 [4] | pD2 [5] | also measured |
| --- | --- | --- | --- | --- | --- | --- |
| O=C1CCCN1CC#CCN1CCCC1 [OXOTREMORINE] | 2.8 | 113 | 8 | 7.1 | 7.1 |  |
| Cn1cncc1C[C@H]1COC(=O)C1 [PILOSININE] | 2890 | 10000 | 4.2 | < 4 |  |  |
| Cc1ccc(C[N+](C)(C)C)o1 | 5.6 | 1410 | 7.1 |  | 5.8 | pD2 (Cavia porcellus): 6.8 |
| C[C@@H]1O[C@H](C[N+](C)(C)C)C[C@H]1O |  |  | 7.4 | 6.8 | 5.9 |  |
